Reference: US9968587B2, “Heterocycle analogs of CAI-1 as agonists of quorum sensing in vibrio” (THE TRUSTEES OF PRINCETON UNIVERSITY, priority 2013, dated 2018)
Where two headings read alike, the source gives them in different places.

Columns and labels:
HapR = test: Western blot analysis of HapR production; type: cell-based, Vibrio cholerae
Text: (§1) In vivo, HapR is a transcription factor that functions as one of two master QS regulators in V. cholerae. Agonism of CqsS leads to increased production of HapR and HapR, in turn, drives the high-cell density gene expression program, which leads to repression of the expression of genes required for virulence and biofilm formation. […] Conversely, production the major V. cholerae virulence factor, TcpA, (toxin-co-regulated pilis protein subunit A), is repressed by both CAI-1 and compound 18.
(§2) Overnight cultures of V. cholerae CqsA-LuxQ—were diluted 1000-fold in AKI medium containing the indicated compounds. The cultures were grown under static conditions at 37° C. for 4 h and then were shaken for 18 h at 37° C. Cells were collected by centrifugation, TcpA and HapR from different samples were analyzed by Western Blot as described in references.

TcpA = test: Western blot analysis of TcpA production; type: cell-based, Vibrio cholerae; settings: FIG. 3, DMSO control
Text: as §1, §2

[1] = biological target: V. cholerae CqsS receptor (Vibrio cholerae serotype O1, UniProt Q9KM66); test: CqsS agonist bioassay (V. cholerae reporter strain MM920, bioluminescence); settings: for EC50: mean of triplicate analyses; for QS agonist potency (in words) / level of QS activation (in words): CqsS agonist bioassay
Text: The molecules were bioassayed in a system that exploits the V. cholerae quorum sensing circuit. The bioassay used a bacterial reporter strain to measure the QS response. Values for percent of activation correspond to the level of bioluminescence produced in the bacterial reporter strain at saturating concentrations of molecule compared to the maximal levels produced in the presence of a native autoinducer molecule (Ea-CAI-1). […] The EC50 values correspond to the concentrations that are required to activate quorum sensing to its half-maximal level.
DMSO was used as the negative control.
EC50 values were calculated by Prism 5 using standard settings and are described in the Tables and text with the error representing the 95% confidence interval for the calculated EC50 value.
The values for % response described in the Tables and text describe the maximal luminescence change for each of the analogs as a percent of EaCAI-1 or 18 (set at 100%). One of these molecules was included as a positive standard of activity for each of the assays.

[2] = tested on: Vibrio cholerae strain MM920; test: Cytotoxicity of compound 18 in V. cholerae as assessed by OD600; settings: FIG. 9, OD600
[3] = EC50, QS agonist activity, reporter strain MM920, 4-hour incubation at 30° C.
[4] = EC50, complete bioassay data, error = 95% confidence interval
[5] = read-out: % Response, Percent maximal bioluminescence with respect to Ea-CAI-1, which is set at 100%
[6] = read-out: % Response, complete bioassay data, percent maximal bioluminescence with respect to Ea-CAI-1 (100%), error = 95% confidence interval

V. cholerae CqsS receptor, sequence (Q9KM66 whole entry, looked up): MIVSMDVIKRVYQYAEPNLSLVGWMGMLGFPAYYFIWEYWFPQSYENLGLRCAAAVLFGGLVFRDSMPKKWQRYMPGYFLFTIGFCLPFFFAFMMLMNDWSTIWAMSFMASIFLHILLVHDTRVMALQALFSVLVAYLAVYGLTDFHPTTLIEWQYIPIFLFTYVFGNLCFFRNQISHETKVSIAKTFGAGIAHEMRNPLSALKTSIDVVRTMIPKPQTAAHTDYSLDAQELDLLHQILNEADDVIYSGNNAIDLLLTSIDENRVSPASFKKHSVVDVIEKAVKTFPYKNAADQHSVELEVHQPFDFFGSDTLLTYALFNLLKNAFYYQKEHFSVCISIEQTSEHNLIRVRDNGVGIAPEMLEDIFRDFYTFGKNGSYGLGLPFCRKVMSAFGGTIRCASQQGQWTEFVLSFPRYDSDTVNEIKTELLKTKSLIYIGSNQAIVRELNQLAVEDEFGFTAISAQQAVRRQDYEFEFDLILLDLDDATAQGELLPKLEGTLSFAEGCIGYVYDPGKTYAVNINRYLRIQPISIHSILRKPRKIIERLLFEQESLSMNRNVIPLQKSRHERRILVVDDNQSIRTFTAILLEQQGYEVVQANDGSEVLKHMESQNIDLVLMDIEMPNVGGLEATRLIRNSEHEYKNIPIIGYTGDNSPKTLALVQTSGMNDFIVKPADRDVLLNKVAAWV

CCCCCCCCCC(=O)[C@@H](O)CC [CAI-1, (S)-3-hydroxytridecan-4-one]
production of HapR (HapR; 10 μM of CAI-1, FIG. 3, DMSO control): activate production of HapR
production of virulence factor TcpA (TcpA): repressed

C/C=C(\N)C(=O)CCCCC [Compound 6, (Z)-3-aminonon-2-en-4-one]
EC50 [1, 3]: 0.59 µM
EC50 [1, 4]: 0.594 ± 0.319 µM
Emax [1, 5]: 100%
Emax [1, 6]: 100 ± 57%

C/C=C(\N)C(=O)CCCCCCC [Compound 8, (Z)-3-aminoundec-2-en-4-one]
Emax [1, 5]: 109%
Emax [1, 6]: 109 ± 25%

C/C=C(\N)C(=O)CCCCCCCC [Compound 9, (Z)-3-aminododec-2-en-4-one]
QS agonist potency (in words) [1]: low nM activity
level of QS activation (in words) [1]: full activation
EC50 [1, 3]: 0.0026 µM
EC50 [1, 4]: 0.0026 ± 0.00032 µM
Emax [1, 5]: 112%
Emax [1, 6]: 112 ± 7%

C/C=C(\N)C(=O)CCCCCCCCCCCC [Compound 11, (Z)-3-aminohexadec-2-en-4-one]
QS agonist potency (in words) [1]: much less active
EC50 [1, 3]: > 225 µM
EC50 [1, 4]: > 5 µM
Emax [1, 5]: 38%
Emax [1, 6]: 38%

CCCCCCCCCC(=O)c1ccc[nH]1 [Compound 17, 1-(1H-pyrrol-2-yl)decan-1-one]
level of QS activation (in words) [1]: full level of QS response
EC50 [1, 4]: 5.17 µM
Emax [1, 6]: 103 ± 91%

CCCCCCCCCC(=O)c1cc[nH]c1 [Compound 18, 1-(1H-pyrrol-3-yl)decan-1-one]
production of HapR (HapR; 1 μM of 18, FIG. 3, DMSO control): increased
production of virulence factor TcpA (TcpA): repressed
effect on bacterial growth (in words) [2]: does not inhibit bacterial growth

CCCCCCCCCC(=O)c1cc(C)[nH]c1C [Compound 19, 1-(2,5-dimethyl-1H-pyrrol-3-yl)decan-1-one]
QS agonist potency (in words) [1]: lower agonist activity
EC50 [1, 4]: 0.679 ± 0.092 µM
Emax [1, 6]: 66 ± 14%

CCCCCCCCCC(=O)c1c(C)c[nH]c1C [Compound 20, 1(2,4-dimethyl-1H-pyrrol-3-yl)decan-1-one]
QS agonist potency (in words) [1]: lower agonist activity
EC50 [1, 4]: 0.536 ± 0.08 µM
Emax [1, 6]: 65 ± 16%

CCCCc1ccc(CCC(=O)c2cc[nH]c2)cc1 [Compound 26, 3-(4-butylphenyl)-1-(1H-pyrrol-3-yl)propan-1-one]
EC50 [1, 4]: 0.0109 ± 0.0048 µM
Emax [1, 6]: 64 ± 42%

CCCCc1ccc(CCC(=O)c2ccc[nH]2)cc1 [Compound 27, 3-(4-butylphenyl)-1-(1H-pyrrol-2-yl)propan-1-one]
EC50 [1, 4]: 2.02 ± 1.68 µM
Emax [1, 6]: 75 ± 45%

O=C(CCCCCCc1ccccc1)c1cc[nH]c1 [Compound 28, 7-phenyl-1-(1H-pyrrol-3-yl)heptan-1-one]
EC50 [1, 4]: 0.0358 ± 0.0061 µM
Emax [1, 6]: 75 ± 10%

O=C(CCCCCCc1ccccc1)c1ccc[nH]1 [Compound 29, 7-phenyl-1-(1H-pyrrol-2-yl)heptan-1-one]
EC50 [1, 4]: > 5 µM
Emax [1, 6]: 60%

CCCCc1ccc(/C=C/C(=O)c2cc[nH]c2)cc1 [Compound 30, 3-(4-butylphenyl)-1-(1H-pyrrol-3-yl)prop-2-en-1-one]
EC50 [1, 4]: 0.0884 ± 0.0249 µM
Emax [1, 6]: 54 ± 29%

CCCCc1ccc(/C=C/C(=O)c2ccc[nH]2)cc1 [Compound 31, 3-(4-butylphenyl)-1-(1H-pyrrol-2-yl)prop-2-en-1-one]
EC50 [1, 4]: 0.731 ± 0.686 µM
Emax [1, 6]: 45 ± 62%

CCCCCCC/C=C/C(=O)c1ccc[nH]1 [Compound 33, (E)-1-(1H-pyrrol-2-yl)dec-2-en-1-one]
EC50 [1, 4]: 0.288 ± 0.092 µM
Emax [1, 6]: 109 ± 31%

O=C(Cc1ccc(-c2ccccc2)cc1)c1cc[nH]c1 [Compound 34, 2-([1,1′-biphenyl]-4-yl)-1-(1H-pyrrol-3-yl)ethanone]
QS agonist potency (in words) [1]: essentially inactive
EC50 [1, 4]: > 5 µM
Emax [1, 6]: 25%

O=C(Cc1ccc(-c2ccccc2)cc1)c1ccc[nH]1 [Compound 35, 2-([1,1′-biphenyl]-4-yl)-1-(1H-pyrrol-2-yl)ethanone]
QS agonist potency (in words) [1]: essentially inactive
EC50 [1, 4]: > 5 µM
Emax [1, 6]: 26%

C/C=C(\N)C(=O)CCCCCCCCC [Ea-CAI-1, (Z)-3-aminotridec-2-en-4-one, reference compound]
QS agonist potency (in words) [1]: low nM activity
level of QS activation (in words) [1]: full activation
EC50 [1, 3]: 0.0041 µM
Emax [1, 5]: 100%
Emax [1, 6]: 100 ± 6.6%
